Test results as given in patent publication US7928099B2, “Pyrimido [4,5-D] azepine derivatives as 5-HT2c agonists” (Pfizer Inc, priority 2007, dated 2011).
Structures can show the parent of a compound that is named as a salt.

Experiments:
[1] = target: T1, human recombinant 5-HT2c receptor (Homo sapiens, UniProt P28335); assay: FLIPR fluorescent Ca2+ mobilisation agonist assay in CHO K1 cells (Method 1); assay type: cell-based; conditions: for Emax: CHO-K1, efficacy; for EC50: agonist affinity, FLIPR
T1 construct: expressed in transfected cells; host or cells: CHO K1 (Chinese hamster ovary), stably transfected
T1 sequence (P28335 33-458): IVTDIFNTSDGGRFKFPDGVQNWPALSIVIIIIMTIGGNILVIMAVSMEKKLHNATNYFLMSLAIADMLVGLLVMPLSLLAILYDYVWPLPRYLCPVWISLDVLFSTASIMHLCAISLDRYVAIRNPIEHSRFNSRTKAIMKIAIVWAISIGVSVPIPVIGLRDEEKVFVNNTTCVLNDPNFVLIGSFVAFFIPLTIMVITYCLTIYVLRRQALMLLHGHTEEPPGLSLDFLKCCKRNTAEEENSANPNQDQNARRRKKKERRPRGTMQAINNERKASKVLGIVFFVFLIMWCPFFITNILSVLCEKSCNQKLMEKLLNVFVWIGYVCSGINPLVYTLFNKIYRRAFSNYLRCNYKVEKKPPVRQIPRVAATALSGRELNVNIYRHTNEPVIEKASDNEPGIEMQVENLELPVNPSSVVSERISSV
Experimental: (§1) The compounds of the invention were evaluated for biological activity by measuring the agonist affinity (EC50) and efficacy (Emax) at the human recombinant 5-HT2c receptor expressed in CHO K1 cells, using a fluorescent based Ca^2+ mobilisation assay format compatible with FLIPR technology (Method 1). Additionally, the binding activity of a compound was determined by measuring its affinity for the human recombinant 5-HT2c receptor membranes from Swiss 3T3 cells (Method 2).
The agonist affinity of the compounds were tested by measuring their ability to induce a fluorescent based Ca^2+ mobilization signal in a FLIPR assay using CHO K1 cells expressing recombinant human 5-HT2C receptor. Both agonist affinity (EC50) and efficacy (Emax) were determined.
Chinese hamster ovary cells (CHO K1) stably transfected with the 5-HT2c receptor were cultured under standard cell culture techniques. Specifically, cells were grown at 37° C. and 5% CO2 in Dulbecco's Modified Eagle's Medium (DMEM) culture media supplemented with 10% dialysed foetal calf serum (FCS), 1% non-essential amino acids, 1 mM sodium pyruvate, 800 μg/mL geneticin and 50 μg/ml zeocin. Cells were harvested for passaging and storage using trypsin-EDTA, centrifugation and resuspension in culture medium. Cells were grown to 60-80% confluency, harvested and adjusted to 15-20×10^6 cells/ml/vial in medium/10% DMSO and stored long-term at −80° C.
Cells were seeded into black-walled clear-bottomed 384 well plates 24 h before use. Frozen cells were defrosted in a 37° C. water bath and immediately transferred into 1 mL/vial 37° C. culture medium, diluted to 10 ml and DMSO removed by centrifugation. The cells were resuspended in 15 ml/vial of cell culture medium, counted and adjusted to give 500,000 cells/mL (10,000 cells/well). […] of cell suspension was added to the 384 well plates which were then incubated overnight at 37° C.
The maximum agonist response was determined with 5-HT at a final assay concentration of 10 μM in the diluent above. The minimum response was determined with Dulbeccos PBS (+CaCl2, +MgCl2) with 0.9% DMSO and 0.05% pluronic F-127. Test compounds, maximum and minimum controls were added to a 384 well polypropylene plate.
The FLIPR calcium assay reagent was diluted with assay buffer (Hank's Balanced Salt Solution (HBSS))/20 mM HEPES and 2.5 mM probenecid (diluted with 1M Sodium hydroxide and DPBS (+CaCl2, +MgCl2)).
20 μl/well FLIPR calcium assay reagent was added to the cell plates, which were incubated for 1 h at 37° C. Cell plates and compound plates were then transferred onto the FLIPR. The assay was run using the appropriate FLIPR program, which initiates the reaction by transferring 15 μL compound into the corresponding, well of the cell plate.
The statistical parameter exported from each well was the max peak height of the response.

[2] = target: T1, human recombinant 5-HT2c receptor; assay: 3H-meselurgine radioligand binding SPA, membranes from Swiss 3T3 cells (Method 2); conditions: 3H-meselurgine displacement, Cheng-Prusoff; Swiss 3T3 membranes; read-out: Binding Affinity Ki
Experimental: as §1
The compounds were tested for biological activity by their ability to inhibit binding of the radioligand ^3H-meselurgine at the human recombinant 5-HT2C receptor expressed in the Swiss 3T3 cells using a scintillation proximity assay (SPA) technology.
Swiss 3T3 stably transfected with the 5-HT2C receptor were cultured under standard cell culture techniques. Specifically, cells were grown in 50 mL growth medium (Dulbecco's Modified Eagle's Medium (DMEM) culture media supplemented with 10% dialysed foetal calf serum (FCS), 2 mM penicillin/streptomycin and 20 μg/mL geneticin) in 225 cm^2 flasks at 37° C. and 5% CO2. Cells were grown to 60-80% confluency, harvested using trypsin-EDTA and pelleted by centrifugation for long-term storage at −80° C.
Cell pellets were thawed on ice and resuspended in 3 mL of membrane preparation buffer (see Media and Buffers for composition) per 1 mL of packed cell. The suspension was homogenised on ice for several 5 s intervals using a hand-held homogeniser. The homogenate was then centrifuged at 1,000 rpm for 5 min at 4° C.
The supernatants were then collected and retained. Initial cell & nuclei pellets (P1) were subsequently rehomogenised and centrifuged using the conditions cited above, and the supernatants collected and pooled with those retained from the first spin.
The pooled supernatants were centrifuged at 19,500 rpm for 45 min at 4° C., and the supernatants discarded. The pellets (P2) were then resuspended in 3 mL of membrane preparation buffer per 1 mL of the original packed cell volume. Protein concentrations were subsequently measured and the membrane suspension was finally frozen in aliquots of set volume and stored at −80° C. prior to use in assays.
For each batch of membrane used, optimal concentrations of Polylysine YSi SPA beads and membrane were determined. The assay free radioligand concentration was expressed as a percentage of the total free radioligand concentration to give an estimate of the radioligand depletion.
The affinity of ^3H-meselurgine for the human recombinant 5-HT2c receptor was determined for each membrane batch at the selected protein and bead concentrations. […] The mean KD for ^3H-meselurgine at a batch of membranes was determined from data from a minimum of three separate assays.
The required amount of membrane, was thawed on ice and added to a pre-determined volume of bead suspension in 50 mM HEPES buffer, pH 7.4. The beads were then pre-coupled by incubating the predetermined protein quantity per mg of bead on a roller 4° C. for 1 h. Subsequently, the bead/membrane complex was spun down at 1000 rpm for 5 min. The resulting pellet was resuspended in assay buffer at the specific concentration required for the final assay.
An aliquot of [^3H]-meselurgine stock was diluted in binding assay buffer to give a pre-determined final assay concentration less than the equilibrium dissociation constant (KD) value.
All test compounds were prepared at a concentration of 4 mM in 100% dimethyl sulphoxide (DMSO) from dry samples.
The same volume of assay buffer was added to specific wells of the plate to enable subsequent measurement of total radioligand binding. Furthermore, 5 μL of Mianserin at 25 μM (2.5 μM final assay concentration was subsequently added to pre-determined wells to determine non-specific binding (NSB).

[3] = percentage of mean maximal response to 10 μM 5-HT

SMILES | Emax [1, 3] | EC50 [1] | Ki [2] | Emax % ([1]; efficacy, percentage of mean maximal response to 10 μM 5-HT)
CN(C)c1nc(N(C)Cc2ccccc2)nc2c1CCNCC2 [Example 14, N-2-benzyl-N-2,N-4,N-4-trimethyl-6,7,8,9-tetrahydro-5H-pyrimido[4,5,d]azepin-2-amine] | 50.8% | 279 nM | 144 nM | –
CN(Cc1ccccc1)c1nc2c(c(N3CCOCC3)n1)CCNCC2 [Example 15, N-benzyl-N-methyl-4-morpholin-4-yl-6,7,8,9-tetrahydro-5H-pyrimido[4,5,d]azepin-2-amine] | – | 202 nM | 181 nM | 64.10%
COc1nc(N(C)Cc2ccccc2)nc2c1CCNCC2 [Example 16, N-benzyl-4-methoxy-N-methyl-6,7,8,9-tetrahydro-5H-pyrimido[4,5,d]azepin-2-amine] | 41.4% | 526 nM | 54.7 nM | –
c1ccc(Cc2nc3c(c(NCC4CCCO4)n2)CCNCC3)cc1 (stereo not drawn) [Example 19, 2-benzyl-N-(tetrahydrofuran-2-ylmethyl)-6,7,8,9-tetrahydro-5H-pyrimidol[4,5-d]azepin-4-amine hydrochloride] | 36.3% | 344 nM | 52.4 nM | –
OCCNc1nc(Cc2ccccc2)nc2c1CCNCC2 [Example 23, 2-[(2-benzyl-6,7,8,9-tetrahydro-5H-pyrimido[4,5-d]azepin-4-yl)amino]ethanol hydrochloride] | 72.6% | 159 nM | 107 nM | –
CC(C)[C@@H](CO)Nc1nc(Cc2ccccc2)nc2c1CCNCC2 [Example 24, (2S)-2-[(2-benzyl-6,7,8,9-tetrahydro-5H-pyrimido[4,5-d]azepin-4-yl)amino]-3-methylbutan-1-ol hydrochloride] | 69.9% | 119 nM | 91.4 nM | –
CO[C@H]1CCN(c2nc(Cc3ccccc3)nc3c2CCNCC3)C1 [Example 26, 2-benzyl-4-[(3S)-3-methoxypyrrolidin-1-yl]-6,7,8,9-tetrahydro-5H-pyrimido[4,5-d]azepine hydrochloride] | 60.9% | 417 nM | 229 nM | –
c1ccc(Cc2nc3c(c(NCCn4cccn4)n2)CCNCC3)cc1 [Example 27, 2-benzyl-N-[2-(1H-pyrazol-1-yl)ethyl]-6,7,8,9-tetrahydro-5H-pyrimido[4,5-d]azepin-4-amine hydrochloride] | 35% | 57.2 nM | 25.4 nM | –
CC(CO)Nc1nc(Cc2ccccc2)nc2c1CCNCC2 (stereo not drawn) [Example 33, 2-[(2-benzyl-6,7,8,9-tetrahydro-5H-pyrimido[4,5-d]azepin-4-yl)amino]propan-1-ol hydrochloride] | 58.5% | 424 nM | 125 nM | –
c1ccc(Cc2nc3c(c(NC4CCOC4)n2)CCNCC3)cc1 (stereo not drawn) [Example 39, 2-benzyl-N-(tetrahydrofuran-3-yl)-6,7,8,9-tetrahydro-5H-pyrimido[4,5-d]azepin-4-amine hydrochloride] | 30.6% | 516 nM | 696 nM | –
OC1(CNc2nc(Cc3ccccc3)nc3c2CCNCC3)CCC1 [Example 41, 1-{[(2-benzyl-6,7,8,9-tetrahydro-5H-pyrimido[4,5-d]azepin-4-yl)amino]methyl}cyclobutanol hydrochloride] | 74.7% | 57 nM | 86.9 nM | –
OCC1CCN(c2nc(Cc3ccccc3)nc3c2CCNCC3)C1 (stereo not drawn) [Example 42, [1-(2-benzyl-6,7,8,9-tetrahydro-5H-pyrimido[4,5-d]azepin-4-yl)pyrrolidin-3-yl]methanol hydrochloride] | 75.4% | 67 nM | 102 nM | –

The next lines start with the values.

Emax [1, 3] | EC50 [1] | Ki [2] | Emax % ([1]; efficacy, percentage of mean maximal response to 10 μM 5-HT) | SMILES
51.3% | 558 nM | 243 nM | – | OC1CCCN(c2nc(Cc3ccccc3)nc3c2CCNCC3)C1 (stereo not drawn) [Example 18, 1-(2-benzyl-6,7,8,9-tetrahydro-5H-pyrimido[4,5-d]azepin-4-yl)piperidin-3-ol hydrochloride]
37.7% | 962 nM | 177 nM | – | c1ccc(Cc2nc3c(c(N4CCCCC4)n2)CCNCC3)cc1 [Example 29, 2-benzyl-4-piperidin-1-yl-6,7,8,9-tetrahydro-5H-pyrimido[4,5-d]azepine hydrochloride]
54.8% | 984 nM | 99.1 nM | – | CC1CCCN(c2nc(Cc3ccccc3)nc3c2CCNCC3)C1 (stereo not drawn) [Example 30, 2-benzyl-4-(3-methylpiperidin-1-yl)-6,7,8,9-tetrahydro-5H-pyrimido[4,5-d]azepine hydrochloride]
66% | 336 nM | 514 nM | – | OC1CCN(c2nc(Cc3ccccc3)nc3c2CCNCC3)CC1 [Example 38, 1-(2-benzyl-6,7,8,9-tetrahydro-5H-pyrimido[4,5-d]azepin-4-yl)piperidin-4-ol hydrochloride]
40.6% | 309 nM | 413 nM | – | N#CC1CCCN(c2nc(Cc3ccccc3)nc3c2CCNCC3)C1 (stereo not drawn) [Example 40, 1-(2-benzyl-6,7,8,9-tetrahydro-5H-pyrimido[4,5-d]azepin-4-yl)piperidine-3-carbonitrile hydrochloride]
52.6% | 190 nM | 61 nM | – | FC1CCN(c2nc(Cc3ccccc3)nc3c2CCNCC3)C1 (stereo not drawn) [Example 43, 2-benzyl-4-(3-fluoropyrrolidin-1-yl)-6,7,8,9-tetrahydro-5H-pyrimido[4,5-d]azepine hydrochloride]
